Results from patent US11926600B2, “Sulfonylureas and sulfonylthioureas as NLRP3 inhibitors” (Inflazome Limited, priority 2017, dated 2024).

What was measured:
[1] = target: T1, NLRP3 (Homo sapiens, UniProt Q96P20); test: Human whole blood IL1β release assay; type: cell-based; design: Plate out 80 μl of whole blood containing 1 μg/ml of LPS; from tissue; host or cells: human whole blood from healthy donors, LPS-primed, nigericin-stimulated; conditions: LPS 1 μg/ml, nigericin 10 μM, IL-1β AlphaLisa, read-out: HWB IC50
Procedure: Human Whole Blood IL1β Release Assay
For systemic delivery, the ability to inhibit NLRP3 when the compounds are present within the bloodstream is of great importance. For this reason, the NLRP3 inhibitory activity of a number of compounds in human whole blood was investigated in accordance with the following protocol.
Human whole blood in Li-heparin tubes was obtained from healthy donors from a volunteer donor panel. • 1. Plate out 80 μl of whole blood containing 1 μg/ml of LPS in 96-well, clear bottom cell culture plate (Corning #3585) • 2. Add 10 μl compound (8 points half-log dilution with 10 μM top dose) or vehicle (DMSO 0.1% FAC) to the appropriate wells • 3. Incubate for 3 hrs at 37° C. 5% CO2 • 4. Add 10 μl Nigericin (Sigma #N7143) (10 μM FAC) to all wells • 5. Incubate for 1 hr at 37° C. 5% CO2 • 6. At the end of the incubation period, spin plates at 300×g for 5 mins to pellet cells and remove 20 μl of supernatant and add to 96-well v-bottom plates for IL-1β analysis (note: these plates containing the supernatants can be stored at −80° C. to be analysed at a later date) • 7. IL-1β was measured according to the manufacturer protocol (Perkin Elmer-AlphaLisa IL-1 Kit AL220F-5000) • 8. IC50 data is fitted to a non-linear regression equation (log inhibitor vs response-variable slope 4-parameters)

[2] = target: T1, NLRP3; test: THP-1 cells pyroptosis assay; type: cell-based; design: Seed THP-1 cells (25,000 cells/well) containing 1.0 μg/ml LPS; host or cells: THP-1 cells, LPS-primed, nigericin-stimulated; conditions: LPS 1 μg/ml, nigericin 5 μM, resazurin readout
Procedure: THP-1 Cells: Culture and Preparation
The cells were routinely passaged and grown to confluency (˜10^6 cells/ml). On the day of the experiment, THP-1 cells were harvested and resuspended into RPMI medium (without FBS). The cells were then counted and viability (>90%) checked by Trypan blue (Sigma #T8154). […] To this diluted cell solution was added LPS (Sigma #L4524) to give a 1 μg/ml Final Assay Concentration (FAC). 40 μl of the final preparation was aliquoted into each well of a 96-well plate. The plate thus prepared was used for compound screening.
THP-1 Cells Pyroptosis Assay
The following method step-by-step assay was followed for compound screening. • 1. […] Incubate for 3 hrs at 37° C. in 5% CO2 • 4. Add 5 μl nigericin (Sigma #N7143) (FAC 5 μM) to all wells • 5. Incubate for 1 hr at 37° C. and 5% CO2 • 6. At the end of the incubation period, spin plates at 300×g for 3 mins and remove supernatant • 7. Then add 50 μl of resazurin (Sigma #R7017) (FAC 100 μM resazurin in RPMI medium without FBS) and incubate plates for a further 1-2 hrs at 37° C. and 5% CO2 • 8. […] IC50 data is fitted to a non-linear regression equation (log inhibitor vs response-variable slope 4-parameters)

T1 sequence (Q96P20 whole entry): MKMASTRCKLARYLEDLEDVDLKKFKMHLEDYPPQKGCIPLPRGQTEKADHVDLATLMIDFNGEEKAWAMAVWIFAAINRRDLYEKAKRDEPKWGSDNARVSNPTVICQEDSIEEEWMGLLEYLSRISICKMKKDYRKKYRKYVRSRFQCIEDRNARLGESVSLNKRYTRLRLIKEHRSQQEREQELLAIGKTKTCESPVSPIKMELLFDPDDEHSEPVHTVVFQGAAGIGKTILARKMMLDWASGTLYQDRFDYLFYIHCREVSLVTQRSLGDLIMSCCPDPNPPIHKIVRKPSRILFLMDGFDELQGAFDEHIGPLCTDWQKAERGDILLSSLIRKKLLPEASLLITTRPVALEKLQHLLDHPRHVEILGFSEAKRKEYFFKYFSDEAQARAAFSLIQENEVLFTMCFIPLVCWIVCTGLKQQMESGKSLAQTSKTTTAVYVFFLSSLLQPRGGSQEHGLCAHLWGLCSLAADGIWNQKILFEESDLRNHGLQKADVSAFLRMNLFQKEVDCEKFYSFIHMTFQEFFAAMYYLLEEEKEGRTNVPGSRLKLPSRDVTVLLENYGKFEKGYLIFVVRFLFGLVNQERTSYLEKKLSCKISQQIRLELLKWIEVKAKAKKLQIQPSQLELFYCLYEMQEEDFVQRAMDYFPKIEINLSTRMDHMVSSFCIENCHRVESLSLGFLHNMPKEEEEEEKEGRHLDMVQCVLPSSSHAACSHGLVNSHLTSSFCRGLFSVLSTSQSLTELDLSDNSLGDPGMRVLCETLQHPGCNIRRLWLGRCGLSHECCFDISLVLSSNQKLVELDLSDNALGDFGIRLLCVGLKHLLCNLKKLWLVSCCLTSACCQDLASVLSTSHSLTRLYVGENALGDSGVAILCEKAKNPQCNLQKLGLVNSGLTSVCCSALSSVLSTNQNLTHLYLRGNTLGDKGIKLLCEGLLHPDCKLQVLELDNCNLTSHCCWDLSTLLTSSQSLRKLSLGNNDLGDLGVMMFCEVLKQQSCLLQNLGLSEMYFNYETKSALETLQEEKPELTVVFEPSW

Row | SMILES | IC50 [1] [nM] | IC50 [2] [nM]
1 | CC(C)c1nc(S(=O)(=O)NC(=O)Nc2c3c(cc4c2CCC4)CCC3)cn1C [Example 13, N-((1,2,3,5,6,7-Hexahydro-s-indacen-4-yl)carbamoyl)-2-isopropyl-1-methyl-1H-imidazole-4-sulfonamide] | 3200 to 10000 | 640 to 2560
2 | COc1cc(-c2ccc3c(c2NC(=O)NS(=O)(=O)c2cn(C(C)C)cn2)CCC3)ccn1 [Example 21] | 400 to 800 | 40 to 160
3 | COc1cc(-c2cc(F)cc(C(C)C)c2NC(=O)NS(=O)(=O)c2cn(C(C)C)cn2)ccn1 [Example 5, N-((4-Fluoro-2-isopropyl-6-(2-methoxypyridin-4-yl)phenyl)carbamoyl)-1-isopropyl-1H-imidazole-4-sulfonamide] | 800 to 1600 | 40 to 160
4 | Cc1nc(S(=O)(=O)NC(=O)Nc2c3c(cc4c2CCC4)CCC3)cn1CCO [Example 17, N-((1,2,3,5,6,7-Hexahydro-s-indacen-4-yl)carbamoyl)-1-(2-hydroxyethyl)-2-methyl-1H-imidazole-4-sulfonamide] | 800 to 1600 | 640 to 2560
5 | CC(C)c1ncc(S(=O)(=O)NC(=O)Nc2c3c(cc4c2CCC4)CCC3)n1C [Example 8, N-((1,2,3,5,6,7-Hexahydro-s-indacen-4-yl)carbamoyl)-2-isopropyl-1-methyl-1H-imidazole-5-sulfonamide] | – | 160 to 640
6 | CC(C)c1cccc(C(C)C)c1NC(=O)NS(=O)(=O)c1cn(C(C)C)cn1 [Example 14, N-((2,6-Diisopropylphenyl)carbamoyl)-1-isopropyl-1H-imidazole-4-sulfonamide] | – | 2560 to 10000
7 | CC(C)c1cc(F)cc(-c2ccnc(C#N)c2)c1NC(=O)NS(=O)(=O)c1cn(C(C)C)cn1 [Example 4, N-((2-(2-Cyanopyridin-4-yl)-4-fluoro-6-isopropylphenyl)carbamoyl)-1-isopropyl-1H-imidazole-4-sulfonamide] | 400 to 800 | 160 to 640
8 | CC(C)n1cnc(S(=O)(=O)NC(=O)Nc2c(-c3ccnc(C#N)c3)ccc3c2CCC3)c1 [Example 20] | < 400 | < 40
9 | CC(C)c1cc(F)cc(-c2cnn(C)c2)c1NC(=O)NS(=O)(=O)c1cn(C(C)C)cn1 [Example 10, N-((4-Fluoro-2-isopropyl-6-(i-methyl-1H-pyrazol-4-yl)phenyl)carbamoyl)-1-isopropyl-1H-imidazole-4-sulfonamide] | – | 2560 to 10000
10 | C[C@H](O)Cn1cnc(S(=O)(=O)NC(=O)Nc2c3c(cc4c2CCC4)CCC3)c1 [Example 2, (S)—N-((1,2,3,5,6,7-Hexahydro-s-indacen-4-yl)carbamoyl)-1-(2-hydroxypropyl)-1H-imidazole-4-sulfonamide] | 800 to 1600 | 160 to 640
11 | CN(C)CCn1cnc(S(=O)(=O)NC(=O)Nc2c3c(cc4c2CCC4)CCC3)c1 [Example 3, 1-(2-(Dimethylamino)ethyl)-N-((1,2,3,5,6,7-hexahydro-s-indacen-4-yl)carbamoyl)-1H-imidazole-4-sulfonamide] | 1600 to 3200 | 640 to 2560
12 | C[C@@H](O)Cn1cnc(S(=O)(=O)NC(=O)Nc2c3c(cc4c2CCC4)CCC3)c1 [Example 1, (R)—N-((1,2,3,5,6,7-Hexahydro-s-indacen-4-yl)carbamoyl)-1-(2-hydroxypropyl)-1H-imidazole-4-sulfonamide] | 800 to 1600 | 160 to 640
13 | Cc1nc(S(=O)(=O)NC(=O)Nc2c3c(cc4c2CCC4)CCC3)cn1C(C)C [Example 7, N-((1,2,3,5,6,7-Hexahydro-s-indacen-4-yl)carbamoyl)-1-isopropyl-2-methyl-1H-imidazole-4-sulfonamide] | 1600 to 3200 | 160 to 640
14 | CN(C)Cc1c(S(=O)(=O)NC(=O)Nc2c3c(cc4c2CCC4)CCC3)ncn1C [Example 19] | 800 to 1600 | 160 to 640
15 | Cn1cnc(S(=O)(=O)NC(=O)Nc2c3c(cc4c2CCC4)CCC3)c1 [Example 12, N-((1,2,3,5,6,7-Hexahydro-s-indacen-4-yl)carbamoyl)-1-methyl-1H-imidazole-4-sulfonamide] | – | 640 to 2560
16 | CC(C)n1cnc(S(=O)(=O)NC(=O)Nc2c3c(cc4c2CCC4)CCC3)c1 [Example 15, N-((1,2,3,5,6,7-Hexahydro-s-indacen-4-yl)carbamoyl)-1-isopropyl-1H-imidazole-4-sulfonamide] | 1600 to 3200 | 160 to 640
17 | CCn1cc(S(=O)(=O)NC(=O)Nc2c3c(cc4c2CCC4)CCC3)nc1C [Example 6, 1-Ethyl-N-((1,2,3,5,6,7-hexahydro-s-indacen-4-yl)carbamoyl)-2-methyl-1H-imidazole-4-sulfonamide] | 3200 to 10000 | 160 to 640
18 | Cc1nc(S(=O)(=O)NC(=O)Nc2c3c(cc4c2CCC4)CCC3)cn1CC1CCCO1 (stereo not drawn) [Example 16, N-((1,2,3,5,6,7-Hexahydro-s-indacen-4-yl)carbamoyl)-2-methyl-1-((tetrahydrofuran-2-yl)methyl)-1H-imidazole-4-sulfonamide] | 800 to 1600 | 160 to 640
19 | Cn1ccnc1S(=O)(=O)NC(=O)Nc1c2c(cc3c1CCC3)CCC2 [Example 9, N-((1,2,3,5,6,7-Hexahydro-s-indacen-4-yl)carbamoyl)-1-methyl-1H-imidazole-2-sulfonamide] | – | 2560 to 10000
